Source: ChEMBL document CHEMBL3217712, “Improved biodistribution, pharmacokinetics and photodynamic efficacy using a new photostable sulfonamide bacteriochlorin” (Medchemcomm, 2012)
Active and inactive are the calls of the source. The calls are words filed in the database; no cut-off is given here.

Columns and labels:
[1] = Biodistribution in mouse Cloudman S91 tumor bearing DBA2 mouse heart at 10 mg/kg, ip after 24 hrs; format: ADME, organism-based; set-up: dose 10 mg/kg, route intraperitoneal; conditions: read-out: Drug uptake
[2] = Biodistribution in mouse Cloudman S91 tumor bearing DBA2 mouse kidneys at 10 mg/kg, ip after 48 hrs; format: ADME, organism-based; set-up: dose 10 mg/kg, route intraperitoneal; conditions: kidney, read-out: Drug uptake
[3] = Biodistribution in mouse Cloudman S91 tumor bearing DBA2 mouse intestine at 10 mg/kg, ip after 48 hrs; format: ADME, organism-based; set-up: dose 10 mg/kg, route intraperitoneal; conditions: read-out: Drug uptake
[4] = Biodistribution in mouse Cloudman S91 tumor bearing DBA2 mouse intestine at 10 mg/kg, ip after 12 hrs; format: ADME, organism-based; set-up: dose 10 mg/kg, route intraperitoneal; conditions: read-out: Drug uptake
[5] = Biodistribution in mouse Cloudman S91 tumor bearing DBA2 mouse blood at 10 mg/kg, ip after 2 hrs; format: ADME, organism-based; set-up: dose 10 mg/kg, route intraperitoneal; conditions: read-out: Drug uptake
[6] = Biodistribution in mouse Cloudman S91 tumor bearing DBA2 mouse blood at 10 mg/kg, ip after 72 hrs; format: ADME, organism-based; set-up: dose 10 mg/kg, route intraperitoneal; conditions: read-out: Drug uptake
S91 [7] = assay: Antitumor activity against mouse Cloudman S91 cells allografted in DBA2 mouse at 10 mg/kg, ip; format: functional, organism-based; set-up: dose 10 mg/kg
Nucleic Acid = assay: Ratio of drug level in tumor to muscle in mouse Cloudman S91 tumor bearing DBA2 mouse at 10 mg/kg, ip; format: ADME, organism-based; set-up: dose 10 mg/kg, route intraperitoneal; conditions: in vivo
[8] = Biodistribution in mouse Cloudman S91 tumor bearing DBA2 mouse lungs at 10 mg/kg, ip after 6 hrs; format: ADME, organism-based; set-up: dose 10 mg/kg, route intraperitoneal; conditions: lung, read-out: Drug uptake
[9] = Biodistribution in mouse Cloudman S91 tumor bearing DBA2 mouse spleen at 10 mg/kg, ip after 12 hrs; format: ADME, organism-based; set-up: dose 10 mg/kg, route intraperitoneal; conditions: read-out: Drug uptake
[10] = Biodistribution in mouse Cloudman S91 tumor bearing DBA2 mouse heart at 10 mg/kg, ip after 12 hrs; format: ADME, organism-based; set-up: dose 10 mg/kg, route intraperitoneal; conditions: read-out: Drug uptake
[11] = Biodistribution in mouse Cloudman S91 tumor bearing DBA2 mouse skin at 10 mg/kg, ip after 12 hrs; format: ADME, organism-based, Zone of skin; set-up: dose 10 mg/kg, route intraperitoneal; conditions: read-out: Drug uptake
S91 [12] = assay: Photodynamic efficacy against mouse Cloudman S91 cells allografted in DBA2 mouse assessed as necrotic and flat tumor at 10 mg/kg, ip followed by irradiated with 96 J cm'-2 laser light for 20 mins measured after 1 to 2 days; format: functional, organism-based; set-up: dose 10 mg/kg
[13] = Biodistribution in mouse Cloudman S91 tumor bearing DBA2 mouse tumour at 10 mg/kg, ip after 12 hrs; format: ADME, organism-based, Neoplasm; set-up: dose 10 mg/kg, route intraperitoneal; conditions: read-out: Drug uptake
[14] = Biodistribution in mouse Cloudman S91 tumor bearing DBA2 mouse tumour at 10 mg/kg, ip after 2 hrs; format: ADME, organism-based, Neoplasm; set-up: dose 10 mg/kg, route intraperitoneal; conditions: read-out: Drug uptake
[15] = Biodistribution in mouse Cloudman S91 tumor bearing DBA2 mouse kidneys at 10 mg/kg, ip after 72 hrs; format: ADME, organism-based; set-up: dose 10 mg/kg, route intraperitoneal; conditions: kidney, read-out: Drug uptake
[16] = Biodistribution in mouse Cloudman S91 tumor bearing DBA2 mouse blood at 10 mg/kg, ip after 24 hrs; format: ADME, organism-based; set-up: dose 10 mg/kg, route intraperitoneal; conditions: read-out: Drug uptake
[17] = Biodistribution in mouse Cloudman S91 tumor bearing DBA2 mouse lungs at 10 mg/kg, ip after 24 hrs; format: ADME, organism-based; set-up: dose 10 mg/kg, route intraperitoneal; conditions: lung, read-out: Drug uptake
S91 [18] = assay: Photodynamic efficacy against mouse Cloudman S91 cells allografted in DBA2 mouse assessed as necrotic scab formation in tumor at 10 mg/kg, ip followed by irradiated with 96 J cm'-2 laser light for 20 mins measured after 12 hrs; format: functional, organism-based; set-up: dose 10 mg/kg
[19] = Biodistribution in mouse Cloudman S91 tumor bearing DBA2 mouse heart at 10 mg/kg, ip after 48 hrs; format: ADME, organism-based; set-up: dose 10 mg/kg, route intraperitoneal; conditions: read-out: Drug uptake
[20] = Biodistribution in mouse Cloudman S91 tumor bearing DBA2 mouse tumour at 10 mg/kg, ip after 24 hrs; format: ADME, organism-based, Neoplasm; set-up: dose 10 mg/kg, route intraperitoneal; conditions: read-out: Drug uptake
Mus musculus = assay: Toxicity in mouse Cloudman S91 cells allografted DBA2 mouse assessed as skin damage with oedema and large scab formation at 10 mg/kg, ip followed by irradiated with 96 J cm'-2 laser light for 20 mins measured after 24 hrs; format: organism-based; set-up: dose 10 mg/kg, route intraperitoneal; conditions: in vivo
[21] = Biodistribution in mouse Cloudman S91 tumor bearing DBA2 mouse spleen at 10 mg/kg, ip after 48 hrs; format: ADME, organism-based; set-up: dose 10 mg/kg, route intraperitoneal; conditions: read-out: Drug uptake
[22] = Biodistribution in mouse Cloudman S91 tumor bearing DBA2 mouse intestine at 10 mg/kg, ip after 2 hrs; format: ADME, organism-based; set-up: dose 10 mg/kg, route intraperitoneal; conditions: read-out: Drug uptake
[23] = Biodistribution in mouse Cloudman S91 tumor bearing DBA2 mouse heart at 10 mg/kg, ip after 72 hrs; format: ADME, organism-based; set-up: dose 10 mg/kg, route intraperitoneal; conditions: read-out: Drug uptake
[24] = Biodistribution in mouse Cloudman S91 tumor bearing DBA2 mouse lungs at 10 mg/kg, ip after 2 hrs; format: ADME, organism-based; set-up: dose 10 mg/kg, route intraperitoneal; conditions: lung, read-out: Drug uptake
[25] = Biodistribution in mouse Cloudman S91 tumor bearing DBA2 mouse intestine at 10 mg/kg, ip after 6 hrs; format: ADME, organism-based; set-up: dose 10 mg/kg, route intraperitoneal; conditions: read-out: Drug uptake
S91 [26] = assay: Photodynamic efficacy against mouse Cloudman S91 cells allografted in DBA2 mouse assessed as tumor growth delay at 10 mg/kg, ip followed by irradiated with 96 J cm'-2 laser light for 20 mins relative to sulfonated bacteriochlorin; format: functional; conditions: route intraperitoneal
[27] = Biodistribution in mouse Cloudman S91 tumor bearing DBA2 mouse spleen at 10 mg/kg, ip after 6 hrs; format: ADME, organism-based; set-up: dose 10 mg/kg, route intraperitoneal; conditions: read-out: Drug uptake
[28] = Biodistribution in mouse Cloudman S91 tumor bearing DBA2 mouse muscle at 10 mg/kg, ip after 2 hrs; format: ADME, organism-based, Muscle tissue; set-up: dose 10 mg/kg, route intraperitoneal; conditions: read-out: Drug uptake
[29] = Biodistribution in mouse Cloudman S91 tumor bearing DBA2 mouse heart at 10 mg/kg, ip after 2 hrs; format: ADME, organism-based; set-up: dose 10 mg/kg, route intraperitoneal; conditions: read-out: Drug uptake
[30] = Biodistribution in mouse Cloudman S91 tumor bearing DBA2 mouse lungs at 10 mg/kg, ip after 72 hrs; format: ADME, organism-based; set-up: dose 10 mg/kg, route intraperitoneal; conditions: lung, read-out: Drug uptake
[31] = Biodistribution in mouse Cloudman S91 tumor bearing DBA2 mouse skin at 10 mg/kg, ip after 48 hrs; format: ADME, organism-based, Zone of skin; set-up: dose 10 mg/kg, route intraperitoneal; conditions: read-out: Drug uptake
[32] = Biodistribution in mouse Cloudman S91 tumor bearing DBA2 mouse skin at 10 mg/kg, ip after 2 hrs; format: ADME, organism-based, Zone of skin; set-up: dose 10 mg/kg, route intraperitoneal; conditions: read-out: Drug uptake
[33] = Biodistribution in mouse Cloudman S91 tumor bearing DBA2 mouse kidneys at 10 mg/kg, ip after 24 hrs; format: ADME, organism-based; set-up: dose 10 mg/kg, route intraperitoneal; conditions: kidney, read-out: Drug uptake
S91 [34] = assay: Photodynamic efficacy against mouse Cloudman S91 cells allografted in DBA2 mouse assessed as time of tumor growth delay at 10 mg/kg, ip followed by irradiated with 96 J cm'-2 laser light for 20 mins; format: functional; conditions: route intraperitoneal
[35] = Biodistribution in mouse Cloudman S91 tumor bearing DBA2 mouse tumour at 10 mg/kg, ip after 6 hrs; format: ADME, organism-based, Neoplasm; set-up: dose 10 mg/kg, route intraperitoneal; conditions: read-out: Drug uptake

concentration at 24 h [1]: 800 ng/g
concentration at 48 h [2]: 400 ng/g
concentration at 48 h [3]: 900 ng/g
concentration at 12 h [4]: 1200 ng/g
concentration at 2 h [5]: 90 ng/g
concentration at 72 h [6]: 50 ng/g
Ratio (Nucleic Acid): 7
concentration at 6 h [8]: 300 ng/g
concentration at 12 h [9]: 6100 ng/g
concentration at 12 h [10]: 200 ng/g
concentration at 12 h [11]: 180 ng/g
concentration at 12 h [13]: 370 ng/g
concentration at 2 h [14]: 40 ng/g
concentration at 72 h [15]: 200 ng/g
concentration at 24 h [16]: 230 ng/g
concentration at 24 h [17]: 850 ng/g
concentration at 48 h [19]: 300 ng/g
concentration at 24 h [20]: 960 ng/g
concentration at 48 h [21]: 7300 ng/g
concentration at 2 h [22]: 200 ng/g
concentration at 72 h [23]: 200 ng/g
concentration at 2 h [24]: 200 ng/g
concentration at 6 h [25]: 1800 ng/g
concentration at 6 h [27]: 7000 ng/g
concentration at 2 h [28]: 30 ng/g
concentration at 2 h [29]: 40 ng/g
concentration at 72 h [30]: 300 ng/g
concentration at 48 h [31]: 80 ng/g
concentration at 2 h [32]: 50 ng/g
concentration at 24 h [33]: 500 ng/g
concentration at 6 h [35]: 160 ng/g
Structure (SMILES): CCNS(=O)(=O)c1ccc(Cl)c(-c2c3nc(c(-c4c(Cl)ccc(S(=O)(=O)NCC)c4Cl)c4ccc([nH]4)c(-c4c(Cl)ccc(S(=O)(=O)NCC)c4Cl)c4nc(c(-c5c(Cl)ccc(S(=O)(=O)NCC)c5Cl)c5ccc2[nH]5)CC4)CC3)c1Cl
Activity (S91 [7]): inactive
Activity (S91 [12]): Active
Activity (S91 [18]): Active
Activity (Mus musculus): Toxic
fold change (FC) (S91 [26]): 1.6
Time (S91 [34]): 44 days
